From patent US20120294879A1, “CONSENSUS SEQUENCE FOR INFLUENZA A VIRUS” (priority 2009, published 2012) come the findings set out here.

Test [1] deals with splenocytes of HLA-A24 (A*2402) transgenic mice. The class given is cell-based. Set-up: key to A24: average IFN-γ spots forming cells per million splenocytes: — represents no positive ELISpot response.
For test [2], the system named is splenocytes of HLA-DR3 (DRB1*0301) transgenic mice. In kind it is cell-based. Set-up: key to DR3: average IFN-γ spots forming cells per million splenocytes: — represents no positive ELISpot response.
Test [3] relates to splenocytes of HLA-DR4 (DRB1*0401) transgenic mice. The class given is cell-based. Set-up: key: — represents no positive ELISpot response.
Test [4] concerns splenocytes of HLA-DR2 (DRB1*1501) transgenic mice. The class given is cell-based. Details: key to DR2: average IFN-γ spots forming cells per million splenocytes: — represents no positive ELISpot response.
In test [5] the test system is splenocytes of HLA-B7 (B*0702) transgenic mice. The class given is cell-based. Details: key to B7: average IFN-γ spots forming cells per million splenocytes: — represents no positive ELISpot response.
Test [6] deals with HLA-DR4 (HLA-DRA*0101 and -DRB1*0401), as expressed in HLA-DR4 transgenic mice (human). Kind of test: cell-based or functional assay.

As for LPDMTPSTEMSMRGVRV, the “A24: average IFN-γ spots forming cells per million splenocytes” value in test [1] is “—”. Besides, in test [2], the “DR3: average IFN-γ spots forming cells per million splenocytes” value (from here on “DR3 … per million splenocytes”) is on record as 324 ± 28(0.1) IFN-γ spots forming cells per million splenocytes and the “DR3: lowest concentration of peptide giving positive ELISpot response in peptide titration” value (“DR3: lowest concentration” below) is reported as 324 ± 28(0.1) μg/ml. Moreover, the “DR4: average IFN-γ spots forming cells per million splenocytes” value (shortened to “DR4 … per million splenocytes”) in test [3] is given as “—”. Further, the “DR2: average IFN-γ spots forming cells per million splenocytes” value (“DR2 … per million splenocytes” for short) in test [4] was “—”. Further, in test [5], the “B7: average IFN-γ spots forming cells per million splenocytes” value is reported as “—”.
With LQLFIKDYRYTYRCHRG, the “A24: average IFN-γ spots forming cells per million splenocytes” value in test [1] was “—”. Also, in test [2], the “DR3 … per million splenocytes” value was 230 ± 23(0.1) IFN-γ spots forming cells per million splenocytes and the “DR3: lowest concentration” value is reported as 230 ± 23(0.1) μg/ml. Further, the “DR4 … per million splenocytes” value in test [3] is 97 ± 30(0.1) IFN-γ spots forming cells per million splenocytes. Moreover, in test [4], the “DR2 … per million splenocytes” value was 61 ± 2(1) IFN-γ spots forming cells per million splenocytes and the “DR2: lowest concentration of peptide giving positive ELISpot response in peptide titration” value (“DR2: lowest concentration” below) is reported as 61 ± 2(1) μg/ml. In test [5], the “B7: average IFN-γ spots forming cells per million splenocytes” value is reported as “—”.
LTHIMIWHSNLNDTTYQ: the “A24: average IFN-γ spots forming cells per million splenocytes” value in test [1] is listed as “—”. Further, in test [2], the “DR3 … per million splenocytes” value was “—”. The “DR4 … per million splenocytes” value in test [3] is “—”. For the same substance, in test [4], the “DR2 … per million splenocytes” value was 238 ± 59(0.1) IFN-γ spots forming cells per million splenocytes and the “DR2: lowest concentration” value is 238 ± 59(0.1) μg/ml. Also, the “B7: average IFN-γ spots forming cells per million splenocytes” value in test [5] is reported as “—”.
With “M1 175-191 peptide of influenza virus A/New York/348/2003 (H1N1)”, in test [6], the IFN-γ ELISpot at 10 µg/ml peptide, splenocytes of immunized HLA transgenic mice worked out at 165 and the lowest concentration of peptide giving positive ELISpot response was 0.1 µg/mL.
Turning to “M1 181-197 peptide of influenza virus A/New York/348/2003 (H1N1)”, in test [6], the IFN-γ ELISpot at 10 µg/ml peptide, splenocytes of immunized HLA transgenic mice is 115 and the lowest concentration of peptide giving positive ELISpot response stood at 1 µg/mL.
Consider MELPSFGVSGVNESADM, for which, in test [1], the “A24: average IFN-γ spots forming cells per million splenocytes” value is listed as “—”. In test [2], the “DR3 … per million splenocytes” value is “—”. Further, the “DR4 … per million splenocytes” value in test [3] is recorded as 274 ± 15(0.1) IFN-γ spots forming cells per million splenocytes. Also, the “DR2 … per million splenocytes” value in test [4] is recorded as “—”. Besides, in test [5], the “B7: average IFN-γ spots forming cells per million splenocytes” value is given as “—”.
On to MGMIGILPDMTPSTEMS, for which the “A24: average IFN-γ spots forming cells per million splenocytes” value in test [1] is recorded as “—”. Moreover, the “DR3 … per million splenocytes” value in test [2] is given as “—”. In addition, the “DR4 … per million splenocytes” value in test [3] was 238 ± 5(0.1) IFN-γ spots forming cells per million splenocytes. Besides, the “DR2 … per million splenocytes” value in test [4] is reported as “—”. In addition, the “B7: average IFN-γ spots forming cells per million splenocytes” value in test [5] is on record as “—”.
For the substance MWEINGPESVLINTYQW, in test [1], the “A24: average IFN-γ spots forming cells per million splenocytes” value is 289 ± 16 IFN-γ spots forming cells per million splenocytes and the “A24: lowest concentration of peptide giving positive ELISpot response in peptide titration” value (shortened to “A24: lowest concentration”) is “(0.1) μg/ml”. Besides, the “DR3 … per million splenocytes” value in test [2] is listed as “—”. The “DR4 … per million splenocytes” value in test [3] is given as “—”. The “DR2 … per million splenocytes” value in test [4] was “—”. Moreover, the “B7: average IFN-γ spots forming cells per million splenocytes” value in test [5] is reported as “—”.
NDLGPATAQMALQLFIK: in test [1], the “A24: average IFN-γ spots forming cells per million splenocytes” value was 92 ± 2(1) IFN-γ spots forming cells per million splenocytes and the “A24: lowest concentration” value is on record as 92 ± 2(1) μg/ml. Besides, the “DR3 … per million splenocytes” value in test [2] is “—”. In addition, the “DR4 … per million splenocytes” value in test [3] is recorded as “—”. Also, in test [4], the “DR2 … per million splenocytes” value is “—”. Moreover, the “B7: average IFN-γ spots forming cells per million splenocytes” value in test [5] was “—”.
Consider “NP 7-23 peptide of influenza virus A/New York/348/2003 (H1N1)”, for which, in test [6], the IFN-γ ELISpot at 10 µg/ml peptide, splenocytes of immunized HLA transgenic mice turned out to be 52 and the lowest concentration of peptide giving positive ELISpot response turned out to be 0.1 µg/mL.
NPSLRMKWMMAMKYPIT: the “A24: average IFN-γ spots forming cells per million splenocytes” value in test [1] is recorded as “—”. In addition, in test [2], the “DR3 … per million splenocytes” value is recorded as “—”. Also, the “DR4 … per million splenocytes” value in test [3] is listed as 166 ± 3(0.1) IFN-γ spots forming cells per million splenocytes. Further, the “DR2 … per million splenocytes” value in test [4] is “—”. Besides, the “B7: average IFN-γ spots forming cells per million splenocytes” value in test [5] is recorded as “—”.
As for PESVLINTYQWIIRNWE, in test [1], the “A24: average IFN-γ spots forming cells per million splenocytes” value is 226 ± 5 IFN-γ spots forming cells per million splenocytes and the “A24: lowest concentration” value is listed as “(0.1) μg/ml”. In test [2], the “DR3 … per million splenocytes” value is on record as “—”. In test [3], the “DR4 … per million splenocytes” value was “—”. Moreover, the “DR2 … per million splenocytes” value in test [4] was “—”. Moreover, the “B7: average IFN-γ spots forming cells per million splenocytes” value in test [5] is listed as “—”.
Take PVHFRNQVKIRRRVDIN: the “A24: average IFN-γ spots forming cells per million splenocytes” value in test [1] is on record as “—”. In addition, in test [2], the “DR3 … per million splenocytes” value is “—”. For the same substance, in test [3], the “DR4 … per million splenocytes” value is 311 ± 37(0.1) IFN-γ spots forming cells per million splenocytes. Also, in test [4], the “DR2 … per million splenocytes” value is reported as “—”. In test [5], the “B7: average IFN-γ spots forming cells per million splenocytes” value is “—”.
Consider RATAILRKATRRLIQLI, for which, in test [1], the “A24: average IFN-γ spots forming cells per million splenocytes” value is on record as “—”. Moreover, the “DR3 … per million splenocytes” value in test [2] was “—”. Moreover, the “DR4 … per million splenocytes” value in test [3] is recorded as 54 ± 2(0.1) IFN-γ spots forming cells per million splenocytes. Further, the “DR2 … per million splenocytes” value in test [4] was “—”. Further, the “B7: average IFN-γ spots forming cells per million splenocytes” value in test [5] is reported as “—”.
Take RFLRVRDQRGNVLLSPE: in test [1], the “A24: average IFN-γ spots forming cells per million splenocytes” value was “—”. In test [2], the “DR3 … per million splenocytes” value is “—”. Besides, in test [3], the “DR4 … per million splenocytes” value is “—”. Moreover, the “DR2 … per million splenocytes” value in test [4] is “—”. Besides, in test [5], the “B7: average IFN-γ spots forming cells per million splenocytes” value is on record as 184 ± 3 IFN-γ spots forming cells per million splenocytes and the “B7: lowest concentration of peptide giving positive ELISpot response in peptide titration” value is “(0.1) μg/ml”.
Turning to RFYRTCKLLGINMSKKK, the “A24: average IFN-γ spots forming cells per million splenocytes” value in test [1] was “—”. Moreover, the “DR3 … per million splenocytes” value in test [2] is reported as “—”. In test [3], the “DR4 … per million splenocytes” value was “—”. Besides, in test [4], the “DR2 … per million splenocytes” value is recorded as 231 ± 73(1) IFN-γ spots forming cells per million splenocytes and the “DR2: lowest concentration” value is listed as 231 ± 73(1) μg/ml. Besides, the “B7: average IFN-γ spots forming cells per million splenocytes” value in test [5] is “—”.
As to RMIGGIGRFYIQMCTEL, in test [1], the “A24: average IFN-γ spots forming cells per million splenocytes” value is listed as 45 ± 5 IFN-γ spots forming cells per million splenocytes and the “A24: lowest concentration” value is given as “(0.1) μg/ml”. Besides, the “DR3 … per million splenocytes” value in test [2] is reported as “—”. In test [3], the “DR4 … per million splenocytes” value is recorded as “—”. The “DR2 … per million splenocytes” value in test [4] is reported as “—”. Also, the “B7: average IFN-γ spots forming cells per million splenocytes” value in test [5] is given as “—”.
Take RMQFSSLTVNVRGSGMR: the “A24: average IFN-γ spots forming cells per million splenocytes” value in test [1] was “—”. In addition, the “DR3 … per million splenocytes” value in test [2] is “—”. In test [3], the “DR4 … per million splenocytes” value is recorded as “—”. Moreover, in test [4], the “DR2 … per million splenocytes” value was 104 ± 16(0.1) IFN-γ spots forming cells per million splenocytes and the “DR2: lowest concentration” value was 104 ± 16(0.1) μg/ml. For the same substance, the “B7: average IFN-γ spots forming cells per million splenocytes” value in test [5] is reported as “—”.
Regarding RQTYDWTLNRNQPAATA, the “A24: average IFN-γ spots forming cells per million splenocytes” value in test [1] is “—”. Moreover, in test [2], the “DR3 … per million splenocytes” value is reported as 78 ± 0(0.1) IFN-γ spots forming cells per million splenocytes and the “DR3: lowest concentration” value was 78 ± 0(0.1) μg/ml. The “DR4 … per million splenocytes” value in test [3] was “—”. Further, in test [4], the “DR2 … per million splenocytes” value is reported as “—”. Further, the “B7: average IFN-γ spots forming cells per million splenocytes” value in test [5] was “—”.
As for SHGTGTGYTMDTVNRTH, the “A24: average IFN-γ spots forming cells per million splenocytes” value in test [1] was “—”. The “DR3 … per million splenocytes” value in test [2] is “—”. Also, the “DR4 … per million splenocytes” value in test [3] was 106 ± 1(0.1) IFN-γ spots forming cells per million splenocytes. Besides, the “DR2 … per million splenocytes” value in test [4] is reported as “—”. Also, the “B7: average IFN-γ spots forming cells per million splenocytes” value in test [5] is given as “—”.
As to SRPMFLYVRTNGTSKIK, in test [1], the “A24: average IFN-γ spots forming cells per million splenocytes” value is “—”. Further, the “DR3 … per million splenocytes” value in test [2] is reported as “—”. The “DR4 … per million splenocytes” value in test [3] was 114 ± 24(0.1) IFN-γ spots forming cells per million splenocytes. Moreover, the “DR2 … per million splenocytes” value in test [4] is on record as “—”. Besides, the “B7: average IFN-γ spots forming cells per million splenocytes” value in test [5] is given as “—”.
For TEKLTITYSSSMMWEIN, the “A24: average IFN-γ spots forming cells per million splenocytes” value in test [1] is “—”. Besides, the “DR3 … per million splenocytes” value in test [2] was “—”. For the same substance, the “DR4 … per million splenocytes” value in test [3] is “—”. For the same substance, in test [4], the “DR2 … per million splenocytes” value is reported as 151 ± 67(0.1) IFN-γ spots forming cells per million splenocytes and the “DR2: lowest concentration” value is reported as 151 ± 67(0.1) μg/ml. The “B7: average IFN-γ spots forming cells per million splenocytes” value in test [5] is “—”.
